# Data: PubChem BioAssay AID1259411 (Chemical Carcinogenesis Research Information System (CCRIS), 2018)
# Calls of active or inactive are those of the source. No rule for the calls is given here.
# Test system: rodent carcinogenicity bioassays, tumor incidence
# Assay: CCRIS carcinogenicity studies
# Outline: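 Archive of carcinogenicity, mutagenicity, tumor promotion and tumor inhibition results drawn from journals, NCI reports and other sources, expert-reviewed; covers 1985-2011 and is no longer updated.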
# [1] = Species: MOUSE, Route: ORAL, Tumor Site: Type of Lesion: LIVER
smiles,measurement,setting,value
c1ccc2ncccc2c1,carcinogen call,[1],active; positive
same,carcinogen call,"Species: MOUSE, Strain/Sex: CD-1/FEMALE, Route: INTRAPERITONEAL, Dose: 0, 0.25, 0.5, 1.0 UMOL IN DMSO TO NEWBORN MICE ON DAYS 1, 8 AND 15 OF LIFE RESPECTIVELY (TOTAL DOSE: 1.75 UMOL) (STUDY D, Dose: 0, 0.25, 0.5, 1.0 UMOL IN DMSO TO NEWBORN MICE ON DAYS 1, 8 AND 15 OF LIFE RESPECTIVELY (TOTAL DOSE: 1.75 UMOL) (STUDY D",inactive; negative
same,carcinogen call,"Species: MOUSE, Strain/Sex: CD-1/FEMALE, Route: INTRAPERITONEAL, Dose: 0, 1.75 UMOL/MOUSE (TOTAL DOSE) ADMINISTERED DURING DAYS 1, 8, AND 15 OF LIFE (STUDY DURATION: 52 WK)",inactive; negative
same,carcinogen call,"Species: MOUSE, Strain/Sex: CD-1/MALE, Route: INTRAPERITONEAL, Dose: 0, 0.25, 0.5, 1.0 UMOL IN DMSO TO NEWBORN MICE ON DAY 1,8 AND 15 OF LIFE RESPECTIVELY (TOTAL DOSE: 1,75 UMOL) (STUDY DUR, Dose: 0, 0.25, 0.5, 1.0 UMOL IN DMSO TO NEWBORN MICE ON DAY 1,8 AND 15 OF LIFE RESPECTIVELY (TOTAL DOSE: 1,75 UMOL) (STUDY DUR, Tumor Site: Type of Lesion: LIVER: HEPATOMA, ADENOMA",active; positive
same,carcinogen call,"Species: MOUSE, Strain/Sex: CD-1/MALE, Route: INTRAPERITONEAL, Dose: 0, 1.75 UMOL/MOUSE (TOTAL DOSE) ADMINISTERED DURING DAYS 1, 8, AND 15 OF LIFE (STUDY DURATION: 52 WK), Tumor Site: Type of Lesion: LIVER: ADENOMA OR CARCINOMA",active; positive
same,carcinogen call,"Species: RAT, Route: ORAL, Tumor Site: Type of Lesion: LIVER",active; positive
same,carcinogen call,"Species: RAT, Strain/Sex: SPRAGUE-DAWLEY/FEMALE, Route: SUBCUTANEOUS, Dose: 0, 200 UMOL/KG IN DMSO INTO SUPRASCAPULAR AREA ON DAY 1 OF LIFE FOLLOWED BY 0, 100 UMOL 1/WK AT WK 2-7 THEN 0, 200 UMOL/, Dose: 0, 200 UMOL/KG IN DMSO INTO SUPRASCAPULAR AREA ON DAY 1 OF LIFE FOLLOWED BY 0, 100 UMOL 1/WK AT WK 2-7 THEN 0, 200 UMOL/",inactive; negative
same,carcinogen call,"Species: RAT, Strain/Sex: SPRAGUE-DAWLEY/MALE, Route: SUBCUTANEOUS, Dose: 0, 200 UMOL/KG IN DMSO INTO SUPRASCAPULAR AREA ON DAY 1 OF LIFE FOLLOWED BY 0, 100 UMOL 1/WK AT WK 2-7 THEN 0, 200 UMOL/, Dose: 0, 200 UMOL/KG IN DMSO INTO SUPRASCAPULAR AREA ON DAY 1 OF LIFE FOLLOWED BY 0, 100 UMOL 1/WK AT WK 2-7 THEN 0, 200 UMOL/",inactive; negative
same,carcinogen call,"Species: RAT, Strain/Sex: WISTAR/MALE, Route: ORAL, Dose: 0, 0.25% IN DIET FOR 4 WK (STUDY DURATION: 20 WK)",inactive; negative
same,carcinogen call,"Species: RAT, Strain/Sex: WISTAR/MALE, Route: ORAL, Dose: 0, 0.25% IN DIET FOR 8 WK (STUDY DURATION: 20 WK)",inactive; negative
same,carcinogen call,"Species: RAT, Strain/Sex: WISTAR/MALE, Route: ORAL, Dose: 0, 0.25% IN DIET FOR 12 WK (STUDY DURATION: 20 WK), Tumor Site: Type of Lesion: LIVER: HEMANGIOENDOTHELIOMA",active; positive
same,carcinogen call,"Species: RAT, Strain/Sex: WISTAR/MALE, Route: ORAL, Dose: 0, 0.25% IN DIET FOR 16 WK (STUDY DURATION: 20 WK), Tumor Site: Type of Lesion: LIVER: HEMANGIOENDOTHELIOMA",active; positive
same,carcinogen call,"Species: RAT, Strain/Sex: WISTAR/MALE, Route: ORAL, Dose: 0, 0.25% IN DIET FOR 20 WK (STUDY DURATION: 20 WK), Tumor Site: Type of Lesion: LIVER: HEMANGIOENDOTHELIOMA",active; positive
C[C@H](CCC(=O)N(CCS(=O)(=O)O)N=O)[C@H]1CCC2C3C(C[C@H](O)[C@@]21C)[C@@]1(C)CC[C@@H](O)C[C@H]1C[C@H]3O (some centres not stated),carcinogen call,"Species: RAT, Strain/Sex: F344/MALE, Route: GAVAGE, Dose: 0, 10 MG IN 50 µL DMSO 5 D/WK FOR 6 WK (STUDY DURATION: 108 WK), Tumor Site: Type of Lesion: LIVER: CARCINOMA",active; positive
Cc1ccc(N)cc1,carcinogen call,[1],active; positive
C=CC=O,carcinogen call,"Species: MOUSE, Strain/Sex: B6C3F1/FEMALE, Route: INTRAPERITONEAL, Dose: 0, 75 NMOL TOTAL DOSE, 1/3 AND 2/3 OF THE TOTAL DOSE ADMINISTERED AT 8 AND 15 DAYS OF AGE RESPECTIVELY, ANIMALS TERMINAT",inactive; negative
same,carcinogen call,"Species: MOUSE, Strain/Sex: B6C3F1/FEMALE, Route: INTRAPERITONEAL, Dose: 0, 150 NMOL TOTAL DOSE, 1/3 AND 2/3 OF THE TOTAL DOSE ADMINISTERED AT 8 AND 15 DAYS OF AGE RESPECTIVELY, ANIMALS TERMINA",inactive; negative
same,carcinogen call,"Species: MOUSE, Strain/Sex: B6C3F1/MALE, Route: INTRAPERITONEAL, Dose: 0, 75 NMOL TOTAL DOSE, 1/3 AND 2/3 OF THE TOTAL DOSE ADMINISTERED AT 8 AND 15 DAYS OF AGE RESPECTIVELY, ANIMALS TERMINAT",inactive; negative
same,carcinogen call,"Species: MOUSE, Strain/Sex: B6C3F1/MALE, Route: INTRAPERITONEAL, Dose: 0, 150 NMOL TOTAL DOSE, 1/3 AND 2/3 OF THE TOTAL DOSE ADMINISTERED AT 8 AND 15 DAYS OF AGE RESPECTIVELY, ANIMALS TERMINA",inactive; negative
same,carcinogen call,"Species: MOUSE, Strain/Sex: CD-1/FEMALE, Route: GAVAGE, Dose: 0, 0.5, 2, 4.5 MG/KG (STABILIZED WITH 0.25%-0.3% HYDROQUINONE) 1/D FOR 18 MO (STUDY DURATION: 18 MO), Dose: 0, 0.5, 2, 4.5 MG/KG (STABILIZED WITH 0.25%-0.3% HYDROQUINONE) 1/D FOR 18 MO (STUDY DURATION: 18 MO)",inactive; negative
same,carcinogen call,"Species: MOUSE, Strain/Sex: CD-1/MALE, Route: GAVAGE, Dose: 0, 0.5, 2, 4.5 MG/KG (STABILIZED WITH 0.25%-0.31 HYDROQUINONE) 1/D FOR 18 MO (STUDY DURATION: 18 MO), Dose: 0, 0.5, 2, 4.5 MG/KG (STABILIZED WITH 0.25%-0.31 HYDROQUINONE) 1/D FOR 18 MO (STUDY DURATION: 18 MO)",inactive; negative
same,carcinogen call,"Species: RAT, Strain/Sex: F344/FEMALE, Route: ORAL, Dose: 0, 625 MG/L IN DRINKING WATER 5 D/WK FOR 100 WK (STUDY DURATION: 130 WK)",inactive; negative
same,carcinogen call,"Species: RAT, Strain/Sex: F344/MALE, Route: INTRAPERITONEAL, Dose: 0, 2 MG/KG 2/WK FOR 9 WK THEN 1.5 MG/KG ONCE IN WK 4 THEN 2/WK FOR 7 WK FOLLOWED BY 1 MG/KG ONCE IN WK 12, TWICE IN WK 1",inactive; negative
same,carcinogen call,"Species: RAT, Strain/Sex: F344/MALE, Route: ORAL, Dose: 0, 100, 250, 625 MG/L IN DRINKING WATER 5 D/WK FOR UP TO 120 WK (STUDY DURATION: 130 WK), Dose: 0, 100, 250, 625 MG/L IN DRINKING WATER 5 D/WK FOR UP TO 120 WK (STUDY DURATION: 130 WK)",inactive; negative
same,carcinogen call,"Species: RAT, Strain/Sex: SPRAGUE-DAWLEY/FEMALE, Route: GAVAGE, Dose: 0, 0.05, 0.5, 2.5 MG/KG/D IN WATER FOR 102 WK (STUDY DURATION: 24 MO), Dose: 0, 0.05, 0.5, 2.5 MG/KG/D IN WATER FOR 102 WK (STUDY DURATION: 24 MO)",inactive; negative
same,carcinogen call,"Species: RAT, Strain/Sex: SPRAGUE-DAWLEY/MALE, Route: GAVAGE, Dose: 0, 0.05, 0.5, 2.5 MG/KG/D IN WATER FOR 102 WK (STUDY DURATION: 24 MO), Dose: 0, 0.05, 0.5, 2.5 MG/KG/D IN WATER FOR 102 WK (STUDY DURATION: 24 MO)",inactive; negative
O[C@@H]1[C@@H](O)[C@@H]2OC[C@@H](O2)[C@H]1O,carcinogen call,"Species: MOUSE, Strain/Sex: CD-1/FEMALE, Route: DERMAL, Dose: 0, 20 UMOL/0.1 ML DMSO 2/WK FOR 5 WK FOLLOWED 1 WK LATER BY 0.1 ML ACETONE 2/WK FOR 47 WK (STUDY DURATION: 52 WK)",inactive; negative
